Data taken from PubChem BioAssay (NCI).
Values joined by “and” are separate entries in the source; they are usually repeats but may differ in a detail not shown here. Equal entries are not always repeated.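 In this assay, cells in 96-well plates receive the compound at five concentrations for 48 hours. Endpoints are linearly interpolated between the surrounding concentrations. Here, GI50 denotes the concentration required for 50% inhibition of growth. Definition used: TGI = concentration required for complete inhibition of growth.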

Key:
Test in all cases: NCI tumour cell line growth inhibition, 48 h
[1] = system: COLO 205 colon
[2] = system: DLD-1 colon
[3] = system: SF-295 CNS
[4] = system: NCI-H522 lung
[5] = system: CAKI-1 renal
[6] = system: HOP-18 NSCLC
[7] = system: TK-10 renal
[8] = system: OVCAR-8 ovarian
[9] = system: DU-145 prostate
[10] = system: NCI/ADR-RES ovarian

| SMILES | TGI [1] | TGI [2] | TGI [3] | TGI [4] | TGI [5] | TGI [6] | TGI [7] | TGI [8] | TGI [9] | TGI [10] | GI50 [1] | GI50 [3] | GI50 [4] | GI50 [5] | GI50 [7] | GI50 [8] | GI50 [2] | GI50 [6] | GI50 [9] | GI50 [10] |
| --- | --- | --- | --- | --- | --- | --- | --- | --- | --- | --- | --- | --- | --- | --- | --- | --- | --- | --- | --- | --- |
| O=C(CCC(=O)C1CCC/C1=N/O)Nc1ccc(Cl)cc1 (stereo not drawn) | > 100 µM | > 100 µM | > 100 µM | > 100 µM | > 100 µM | > 100 µM | > 100 µM | > 100 µM |  |  |  |  |  |  |  |  |  |  |  |  |
| Cn1cccc1/C=C/c1cc(Br)c(/C=C/c2cccn2C)cc1Br | 55 µM | 4.97 µM | 52.8 µM | 28.3 µM | 39.7 µM | 28 µM | 45.3 µM |  |  |  |  |  |  |  |  |  |  |  |  |  |
| O=C(NC(=O)c1ccccc1[N+](=O)[O-])Nc1ccc(Oc2ncc(Cl)cn2)c(C(F)(F)F)c1 | 0.109 µM | > 100 µM | > 4.64 µM | 0.16 µM |  | > 100 µM | > 100 µM | 9.71 µM | > 100 µM |  |  |  |  |  |  |  |  |  |  |  |
| O=NN(CCCl)C(=O)NC1CCC(CC2CCC(NC(=O)N(CCCl)N=O)CC2)CC1 (stereo not drawn) | > 88.1 µM | > 62.4 µM | > 79.2 µM | 48.3 µM | > 100 µM | > 56.2 µM | > 100 µM | > 31.6 µM |  | 77.9 µM |  |  |  |  |  |  |  |  |  |  |
| Cc1ccc(C(=O)CC2=Nc3nnc(CCCCCCCc4nnc5n4C(=O)C(CC(=O)c4ccc(C)cc4)=N5)n3C2=O)cc1 | > 100 µM | > 100 µM | > 100 µM | > 100 µM | > 100 µM | > 100 µM | > 100 µM | > 100 µM |  |  |  |  |  |  |  |  |  |  |  |  |
| Cn1c(=O)c2/c(n(C)c1=O)=N\C=c1\c(=O)n(C)c(=O)n(C)\c1=N\C=2 | > 100 µM | > 100 µM | > 100 µM | > 100 µM | > 100 µM | > 100 µM | > 100 µM | > 100 µM |  |  |  |  |  |  |  |  |  |  |  |  |
| O=[N+]([O-])c1ccc(C=NC23CC4CC(CC(C4)C2)C3)cc1 | > 100 µM | > 100 µM | > 100 µM | > 100 µM | > 100 µM | > 100 µM | > 100 µM | > 100 µM |  |  |  |  |  |  |  |  |  |  |  |  |
| CNCCN=c1ccc2c3c1c(O)c1c(O)ccc(=O)c1c3[nH]n2CCNCCO | 4.41 µM and 4.59 µM | 11.6 µM and 11.9 µM and 19.6 µM | 0.794 µM and 0.811 µM |  | 0.992 µM and 2.28 µM | 2.18 µM and 7.73 µM and 6.04 µM | 7.54 µM and 18.6 µM | 6.05 µM and 5.42 µM | 1.27 µM and 0.942 µM | 46.9 µM and 404 µM and 239 µM | 0.398 µM and 0.56 µM | 0.0369 µM | 0.194 µM and 0.627 µM | 0.054 µM | 1.14 µM and 5.32 µM | 0.174 µM and 0.366 µM |  |  |  |  |
| O=S1Nc2c(Cl)cc(Cl)c(Cl)c2S1 (stereo not drawn) | > 100 µM | > 100 µM | > 100 µM | > 100 µM | > 100 µM | > 100 µM | > 100 µM | > 100 µM |  |  |  |  |  |  |  |  |  |  |  |  |
| CCN(CC)C(=S)[S][Bi]([S]C(=S)N(CC)CC)[S]C(=S)N(CC)CC | 0.131 µM | 0.208 µM | 3.16 µM | 0.0332 µM | 0.776 µM | 0.375 µM | 0.374 µM | 0.755 µM | 2.59 µM | 0.85 µM | < 0.0208 µM | 1.73 µM | 0.0157 µM | 0.199 µM | 0.197 µM | 0.284 µM | 0.0404 µM | 0.202 µM | 1.28 µM | 0.277 µM |
| CCCCCCCCCCCCCCCCCC(=O)Nc1ccn(C2OC(CO)C(O)C2O)c(=O)n1 (stereo not drawn) | > 100 µM | > 100 µM | > 100 µM | 75.4 µM | > 100 µM | > 100 µM | > 100 µM | > 84.8 µM | > 100 µM | > 100 µM |  |  |  |  |  |  |  |  |  |  |
| OCCN1CCN(CC/C=C2/c3ccccc3Sc3ccc(Cl)cc32)CC1 | 23.3 µM | 26.4 µM | 32.6 µM | 30.1 µM | 24.4 µM | 24 µM | 28.8 µM | 29.1 µM |  |  |  |  |  |  |  | 15.2 µM |  |  |  |  |
| CC(=O)[CH-]C(=O)c1ccccc1.CC(=O)[CH-]C(=O)c1ccccc1.CC[O-].O=C1c2ccccc2C(=O)c2c1ccc(O)c2[O-].[Ti+4] | > 100 µM | > 100 µM | > 100 µM | 60.3 µM | > 100 µM | 88.3 µM |  | > 100 µM |  |  |  |  |  |  |  |  |  | 23.1 µM |  |  |
| CCCCCCCCCCC(C)CCCCCCC(=O)O (stereo not drawn) | > 100 µM | > 100 µM | > 100 µM | > 100 µM | > 100 µM | > 100 µM | > 100 µM | > 100 µM |  |  |  |  |  |  |  |  |  |  |  |  |
| CCN(CC)CCNC(=O)c1cccc2nc3ccccc3nc12 | > 41.4 µM | > 100 µM | > 38.1 µM | > 100 µM | > 100 µM | > 63.4 µM | > 100 µM | > 100 µM |  |  |  |  |  |  |  |  |  |  |  |  |
| N.N.O=P([O-])([O-])C1(P(=O)([O-])[O-])CCCCCN1.[Pt+2] | > 100 µM | > 100 µM | > 100 µM | > 100 µM | > 100 µM | > 100 µM | > 100 µM | > 100 µM |  |  | > 100 µM | > 100 µM | > 100 µM | > 100 µM | > 100 µM | > 100 µM | > 100 µM | > 100 µM |  |  |
